Assay results published in US20250213705A1, “PSMA TARGETING LIGANDS AND METHODS OF USE” (Bright Peak Therapeutics AG, priority 2023, published 2025).

Legend:
[1] = target: Recombinant Human PSMA/FOLH1 Protein (Homo sapiens (Human), UniProt Q04609); experiment: Inhibition assay (Amplex Red glutamic acid/glutamate oxidase, NAAG substrate); assay type: biochemical; conditions: Target PSMA, average of N replicates; for IC50: PSMA 5 nM, NAAG 40 μM; for Ki: calculated based on Cheng-Prusoff equation
Protocol: Amplex™ Red Glutamic Acid/Glutamate Oxidase Assay Kit Catalog number: A12221 (Thermofisher); Recombinant Human PSMA/FOLH1 Protein, CF (rnd systems); N-Acetyl-Asp-Glu (NAAG) (Sigma Aldrich; 96 well half area plate; Enspire plate reader.
Prepare a working solution of 100 μM Amplex® Red reagent containing 0.25 U/mL HRP, 0.08 U/mL L-glutamate oxidase, 0.5 U/mL 1-glutamate-pyruvate transaminase, 200 μM L-alanine and keep protected from light. […] Final concentration is 5 nM. Transfer 10 μl/well of the inhibitor solution previously prepared in a separate 96 wells/plate.
Pipette 20 μl/well of the working solution prepared above. Incubate the reactions for 30 min at 37° C., protected from light. Because the assay is continuous (not terminated), fluorescence may be measured at multiple time points to follow the kinetics of the reactions. Measure the fluorescence in a fluorescence microplate reader using excitation in the range of 530-560 nm and emission detection at ˜590 nm. Ec50s were determined with GraphPad Prism. Ki is calculated based on Cheng-Prusoff equation.

human FOLH1 = human FOLH1 (Homo sapiens (Human), UniProt Q04609); experiment: SPR analysis of binding kinetics to biotinylated FOLH1 (Biacore 8K); conditions: ligand PSMA; for Kon: association rate; for koff: dissociation rate; for Kd: kinetic 1:1 binding model
Chain of human FOLH1 (Q04609 whole entry): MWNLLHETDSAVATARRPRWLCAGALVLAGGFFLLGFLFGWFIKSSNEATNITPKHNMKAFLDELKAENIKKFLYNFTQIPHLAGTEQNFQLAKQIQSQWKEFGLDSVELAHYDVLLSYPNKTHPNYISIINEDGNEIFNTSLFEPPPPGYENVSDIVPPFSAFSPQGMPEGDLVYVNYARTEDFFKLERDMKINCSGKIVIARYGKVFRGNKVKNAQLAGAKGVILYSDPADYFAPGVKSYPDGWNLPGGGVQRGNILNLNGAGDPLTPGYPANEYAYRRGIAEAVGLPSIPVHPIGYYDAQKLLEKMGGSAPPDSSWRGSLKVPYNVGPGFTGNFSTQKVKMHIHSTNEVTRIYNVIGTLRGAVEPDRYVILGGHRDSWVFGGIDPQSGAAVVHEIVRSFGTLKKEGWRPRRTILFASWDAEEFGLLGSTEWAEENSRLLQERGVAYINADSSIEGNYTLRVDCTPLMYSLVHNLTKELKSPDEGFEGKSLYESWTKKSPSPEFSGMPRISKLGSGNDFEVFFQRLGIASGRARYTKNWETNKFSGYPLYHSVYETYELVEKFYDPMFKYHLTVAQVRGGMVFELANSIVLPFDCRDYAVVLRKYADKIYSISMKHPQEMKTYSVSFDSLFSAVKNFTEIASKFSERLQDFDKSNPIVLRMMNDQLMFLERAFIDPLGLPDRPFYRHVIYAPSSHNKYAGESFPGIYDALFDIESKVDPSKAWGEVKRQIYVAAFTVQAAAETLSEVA
Protocol: The interaction of PSMA-binding variants with human FOLH1 was measured with Surface Plasmon Resonance (SPR) technology. Biotinylated FOLH1 was captured at a concentration of 30 μg/mL onto a Streptavidin chip.
Binding kinetics of the analytes were measured with a Biacore 8K instrument in two-fold serial dilutions starting at 500 nM down to 1.95 nM in single cycle kinetic measurements. After each cycle, needles were washed with 50% DMSO. To measure the association to the FOLH1 protein, the samples were injected with a flow rate of 30 μL/min for 90 s, followed by 1200 s buffer only to detect the dissociation. The used running buffer was 1×PBS with 0.05% Tween20 and 2% DMSO. The relative response units (RU, Y-axis) are plotted against time (s, X-axis) and analyzed in a kinetic 1:1 binding model.
In a different setup, biotinylated FOLH1 was captured at a concentration of 0.8 μg/mL and the running buffer was 1×PBS with 0.05% Tween20.

Chain of Recombinant Human PSMA/FOLH1 Protein (Q04609 whole entry): as above

| Compound | IC50 [1] [nM] | Ki [1] [nM] | Kon (human FOLH1) | koff (human FOLH1) [s⁻¹] | Kd (human FOLH1) [nM] |
| --- | --- | --- | --- | --- | --- |
| CC(=O)NCCOCCOCCOCCC(=O)N[C@@H](Cc1ccc(C(=O)O)cc1)C(=O)NCCCC(=O)N[C@@H](Cc1ccc2ccccc2c1)C(=O)NCCCC[C@H](NC(=O)N[C@@H](CCC(=O)O)C(=O)O)C(=O)O [Compound 97] | 10.8 | 0.077 | 90100 1.ms | 0.000328 | 3.64 |
| CC(=O)NCCOCCOCCOCCC(=O)N[C@@H](Cc1ccc(C(=O)O)cc1)C(=O)NCCC(=O)N[C@@H](Cc1ccc2ccccc2c1)C(=O)NCCCC[C@H](NC(=O)N[C@@H](CCC(=O)O)C(=O)O)C(=O)O [Compound 95] | 11.5 | 0.0823 | 124000 1.ms | 0.000242 | 1.95 |
| CC(=O)NCCOCCOCCOCCC(=O)N(CCCCOc1cc(C#N)cc(C#N)c1)CC(=O)N[C@@H](Cc1ccc2ccccc2c1)C(=O)NCCCC[C@H](NC(=O)N[C@@H](CCC(=O)O)C(=O)O)C(=O)O [Compound 87] | 1480 | 10.6 | 272000 1.ms | 0.000136 | 0.5 |
| CC(=O)NCCOCCOCCOCCC(=O)N[C@@H]1C[C@@H](C(=O)NCC(=O)N[C@@H](Cc2ccc3ccccc3c2)C(=O)NCCCC[C@H](NC(=O)N[C@@H](CCC(=O)O)C(=O)O)C(=O)O)N(C(=O)COc2cc(C#N)cc(C#N)c2)C1 [Compound 90] | 87.6 | 0.626 | 183000 1.ms | 0.000232 | 1.27 |
| CC(=O)NCCOCCOCCOCCC(=O)N[C@@H](Cc1cccc(C(=O)O)c1)C(=O)NCCC(=O)N[C@@H](Cc1ccc2ccccc2c1)C(=O)NCCCC[C@H](NC(=O)N[C@@H](CCC(=O)O)C(=O)O)C(=O)O [Compound 93] | 9.6 | 0.0686 | 149000 1.ms | 0.000258 | 1.73 |
| CC(=O)NCCOCCOCCOCCC(=O)NC[C@H]1CC[C@H](C(=O)N[C@H](Cc2c[nH]c3ccccc23)C(=O)NCCCC[C@H](NC(=O)N[C@@H](CCC(=O)O)C(=O)O)C(=O)O)CC1 [Compound 5] | 81.7 | 0.584 | 195000 1.ms | 0.000543 | 2.78 |
| CC(=O)NCCOCCOCCOCCC(=O)NC[C@H]1CC[C@H](C(=O)N[C@@H](Cc2ccc3ccccc3c2)C(=O)NCCCC[C@H](NC(=O)N[C@@H](CCCC(=O)O)C(=O)O)C(=O)O)CC1 [Compound 24] | 3350 | 24 | 305000 1.ms | 0.0107 | 35.2 |
| CC(=O)NCCOCCOCCOCCC(=O)N1C[C@H](NC(=O)COc2cc(C#N)cc(C#N)c2)C[C@H]1C(=O)NCC(=O)N[C@@H](Cc1ccc2ccccc2c1)C(=O)NCCCC[C@H](NC(=O)N[C@@H](CCC(=O)O)C(=O)O)C(=O)O [Compound 89] | 93.5 | 0.669 | 121000 1.ms | 0.000311 | 2.58 |
| CC(=O)NCCOCCOCCOCCC(=O)NC[C@H]1CC[C@H](C(=O)N[C@@H](Cc2c[nH]c3ccc(F)cc23)C(=O)NCCCC[C@H](NC(=O)N[C@@H](CCC(=O)O)C(=O)O)C(=O)O)CC1 [Compound 12] | 41.5 | 0.297 | 250000 1.ms | 0.000142 | 0.568 |
| CC(=O)NCCOCCOCCOCCC(=O)NC[C@H]1CC[C@H](C(=O)N[C@@H](Cc2cccc(C(=O)O)c2)C(=O)NCCCC[C@H](NC(=O)N[C@@H](CCC(=O)O)C(=O)O)C(=O)O)CC1 [Compound 10] | 21.3 | 0.152 |  |  | 2.02 |
| CC(=O)NCCOCCOCCOCCC(=O)N[C@@H]1C[C@@H](C(=O)N[C@@H](Cc2ccc3ccccc3c2)C(=O)NCCCC[C@H](NC(=O)N[C@@H](CCC(=O)O)C(=O)O)C(=O)O)N(C(=O)COc2cc(C#N)cc(C#N)c2)C1 [Compound 81] |  |  | 90000 1.ms | 0.000371 |  |
| CC(=O)NCCOCCOCCOCCC(=O)NC[C@H]1CC[C@H](C(=O)N[C@@H](Cc2ccc3ccccc3c2)C(=O)NCCCC[C@H](NC(=O)N[C@@H](CCc2n[nH]c(=O)o2)C(=O)O)C(=O)O)CC1 [Compound 48] | 10300 | 73.5 |  |  | 1650 |
| CC(=O)NCCOCCOCCOCCC(=O)NC[C@H]1CC[C@H](C(=O)N[C@@H](Cc2ccc3ccccc3c2)C(=O)NCCCC[C@H](NC(=O)N[C@@H](Cc2ccco2)C(=O)O)C(=O)O)CC1 [Compound 49] | 16500 | 118 |  |  | 3080 |
| CC(=O)NCCOCCOCCOCCC(=O)N[C@@H](CCCOc1cc(C#N)cc(C#N)c1)C(=O)NCC(=O)N[C@@H](Cc1ccc2ccccc2c1)C(=O)NCCCC[C@H](NC(=O)N[C@@H](CCC(=O)O)C(=O)O)C(=O)O [Compound 52] | 26.1 | 0.187 | 291000 1.ms | 0.000326 | 1.12 |
| CC(=O)NCCOCCOCCOCCC(=O)NC[C@H]1CC[C@H](C(=O)N[C@@H](Cc2ccc(OCc3ccccc3)cc2)C(=O)NCCCC[C@H](NC(=O)N[C@@H](CCC(=O)O)C(=O)O)C(=O)O)CC1 [Compound 16] | 331 | 2.37 | 461000 1.ms | 0.00356 | 7.73 |
| CC(=O)NCCOCCOCCOCCC(=O)N1C[C@H](NC(=O)CCCOc2cc(C#N)cc(C#N)c2)C[C@H]1C(=O)N[C@@H](Cc1ccc2ccccc2c1)C(=O)NCCCC[C@H](NC(=O)N[C@@H](CCC(=O)O)C(=O)O)C(=O)O [Compound 80] |  |  | 243000 1.ms | 0.000599 |  |
| CC(=O)NCCOCCOCCOCCC(=O)NC[C@H]1CC[C@H](C(=O)N[C@@H](Cc2c[nH]c3ccccc23)C(=O)NCCCC[C@H](NC(=O)N[C@@H](CCC(=O)O)C(=O)O)C(=O)O)CC1 (stereo in doubt) [Compound 2] | 25.1 | 0.18 | 158000 1.ms | 3.3e-05 | 0.208 |
| CC(=O)NCCOCCOCCOCCC(=O)N(CCCOc1cc(C(F)(F)F)cc(C(F)(F)F)c1)CC(=O)N[C@@H](Cc1ccc2ccccc2c1)C(=O)NCCCC[C@H](NC(=O)N[C@@H](CCC(=O)O)C(=O)O)C(=O)O [Compound 86] |  |  | 339000 1.ms | 0.000397 |  |
| CC(=O)NCCOCCOCCOCCC(=O)NC[C@H]1CC[C@H](C(=O)N[C@@H](Cc2ccc(-c3ccccc3)cc2)C(=O)NCCCC[C@H](NC(=O)N[C@@H](CCC(=O)O)C(=O)O)C(=O)O)CC1 [Compound 7] | 171 | 1.23 | 293000 1.ms | 0.00167 | 5.72 |
| CC(=O)NCCOCCOCCOCCC(=O)N(CCCOc1ccc(F)cc1F)CC(=O)NC[C@H]1CC[C@H](C(=O)N[C@@H](Cc2ccc3ccccc3c2)C(=O)NCCCC[C@H](NC(=O)N[C@@H](CCC(=O)O)C(=O)O)C(=O)O)CC1 [Compound 39] | 50.5 | 0.361 | 223000 1.ms | 0.00024 | 1.08 |
| CC(=O)NCCOCCOCCOCCC(=O)NC[C@H]1CC[C@H](C(=O)N[C@@H](Cc2ccc(C(=O)O)cc2)C(=O)NCCCC[C@H](NC(=O)N[C@@H](CCC(=O)O)C(=O)O)C(=O)O)CC1 [Compound 21] | 201 | 1.44 | 183000 1.ms | 0.00194 | 10.6 |
| CC(=O)NCCOCCOCCOCCC(=O)NC[C@H]1CC[C@H](C(=O)N[C@@H](Cc2ccc3ccccc3c2)C(=O)NCCCC[C@H](NC(=O)N[C@@H](CC(=O)O)C(=O)O)C(=O)O)CC1 [Compound 23] |  |  | 291000 1.ms | 0.0349 |  |
| CC(=O)NCCOCCOCCOCCC(=O)NC[C@H]1CC[C@H](C(=O)N[C@@H](Cc2ccccc2)C(=O)NCCCC[C@H](NC(=O)N[C@@H](CCC(=O)O)C(=O)O)C(=O)O)CC1 [Compound 17] | 92.6 | 0.662 | 125000 1.ms | 0.000207 | 1.65 |
| CC(=O)NCCOCCOCCOCCC(=O)N1C[C@H](NC(=O)COc2cc(C#N)cc(C#N)c2)C[C@H]1C(=O)N[C@@H](Cc1ccc2ccccc2c1)C(=O)NCCCC[C@H](NC(=O)N[C@@H](CCC(=O)O)C(=O)O)C(=O)O [Compound 79] | 7.79 | 0.0557 | 137000 1.ms | 0.000515 | 3.76 |
| CC(=O)NCCOCCOCCOCCC(=O)N1C[C@H](NC(=O)CCCOc2cc(C#N)cc(C#N)c2)C[C@H]1C(=O)NCC(=O)N[C@@H](Cc1ccc2ccccc2c1)C(=O)NCCCC[C@H](NC(=O)N[C@@H](CCC(=O)O)C(=O)O)C(=O)O [Compound 91] |  |  | 71500 1.ms | 0.000258 |  |
